Measured values taken from ChEMBL document CHEMBL1201862, “PubChem BioAssay data set” (2004).
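Five compound concentrations were applied to cells in 96-well plates for 48 hours; endpoints were derived by simple linear interpolation of the resulting dose-response curve. GI50 marks 50% less growth.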 Activity calls are given as the source filed them. Cut-off read from the data, not from the text of the source: active = GI50 up to about 1.1 µM and inactive = higher.

What was measured:
Test in all cases: NCI-60 cell line screen, 48 h
OVCAR-4 = test system: OVCAR-4
UACC-257 = test system: UACC-257
RPMI-8226 = test system: RPMI-8226
SNB-75 = test system: SNB-75
MDA-MB-231 = test system: MDA-MB-231
U-251 = test system: U-251
K562 = test system: K562
SK-MEL-2 = test system: SK-MEL-2
HCT-15 = test system: HCT-15
CAKI-1 = test system: CAKI-1
SF-539 = test system: SF-539
TK-10 = test system: TK-10
IGROV-1 = test system: IGROV-1
Malme-3M = test system: Malme-3M
SK-OV-3 = test system: SK-OV-3
SK-MEL-5 = test system: SK-MEL-5
MCF7 = test system: MCF7
LOX IMVI = test system: LOX IMVI
SW-620 = test system: SW-620
RXF 393 = test system: RXF 393

COc1ccc2oc(=N)c(C(=O)Nc3ccccc3)cc2c1
GI50 (OVCAR-4): 45600 nM (inactive)
GI50 (UACC-257): 62500 nM (inactive)
GI50 (RPMI-8226): 15700 nM (inactive)
GI50 (SNB-75): 10400 nM (inactive)
GI50 (MDA-MB-231): 23400 nM (inactive)
GI50 (U-251): 19100 nM (inactive)
GI50 (K562): 1260 nM (inactive)
GI50 (SK-MEL-2): 17200 nM (inactive)
GI50 (HCT-15): 31000 nM
GI50 (CAKI-1): 5610 nM (inactive)
GI50 (SF-539): 20300 nM (inactive)
GI50 (TK-10): 57500 nM (inactive)
GI50 (IGROV-1): 17900 nM (inactive)
GI50 (Malme-3M): 15900 nM (inactive)
GI50 (SK-OV-3): 10900 nM (inactive)
GI50 (SK-MEL-5): 25800 nM (inactive)
GI50 (MCF7): 12800 nM (inactive)
GI50 (LOX IMVI): 31600 nM (inactive)
GI50 (SW-620): 22000 nM (inactive)
GI50 (RXF 393): 17300 nM (inactive)

COc1ccccc1C[C@@H]1OC2(C=CC(=O)CC2SC(=O)c2ccccc2)O[C@H]1Cc1ccccc1OC (stereo not given in full)
GI50 (OVCAR-4): 1330 nM (inactive)
GI50 (UACC-257): 1510 nM (inactive)
GI50 (RPMI-8226): 300 nM (active)
GI50 (SNB-75): 1780 nM (inactive)
GI50 (MDA-MB-231): 2640 nM (inactive)
GI50 (U-251): 1440 nM (inactive)
GI50 (K562): 2510 nM (inactive)
GI50 (SK-MEL-2): 1710 nM (inactive)
GI50 (HCT-15): 1050 nM
GI50 (CAKI-1): 1790 nM (inactive)
GI50 (SF-539): 1670 nM (inactive)
GI50 (TK-10): 1540 nM (inactive)
GI50 (IGROV-1): 1420 nM (inactive)
GI50 (Malme-3M): 1770 nM (inactive)
GI50 (SK-OV-3): 2170 nM (inactive)
GI50 (SK-MEL-5): 1620 nM (inactive)
GI50 (MCF7): 363 nM (active)
GI50 (LOX IMVI): 582 nM (active)
GI50 (SW-620): 324 nM (active)
GI50 (RXF 393): 121 nM (active)
